Experimental data: PubChem BioAssay AID1645865 (Buhrlage Lab, Dana-Farber Cancer Institute and Novartis …, 2021)
Active and inactive are the calls of the source.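 How the source made its calls: active means maximal inhibition of the USP30 enzyme reaching 30% or more across the dose series; inactive means the rest.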

The molecules below were run against Ubiquitin carboxyl-terminal hydrolase 30 (Homo sapiens) (UniProt Q70CQ3) (assay: ubiquitin-specific protease 30 DUB inhibitors, concentration-effect, biochemical, validation of primary actives (AID 1645865)). Settings: purified USP30, Ub-rhodamine cleavage, fluorescence, 2 h.
Chain of Ubiquitin carboxyl-terminal hydrolase 30 (Homo sapiens) (Q70CQ3 whole entry, looked up): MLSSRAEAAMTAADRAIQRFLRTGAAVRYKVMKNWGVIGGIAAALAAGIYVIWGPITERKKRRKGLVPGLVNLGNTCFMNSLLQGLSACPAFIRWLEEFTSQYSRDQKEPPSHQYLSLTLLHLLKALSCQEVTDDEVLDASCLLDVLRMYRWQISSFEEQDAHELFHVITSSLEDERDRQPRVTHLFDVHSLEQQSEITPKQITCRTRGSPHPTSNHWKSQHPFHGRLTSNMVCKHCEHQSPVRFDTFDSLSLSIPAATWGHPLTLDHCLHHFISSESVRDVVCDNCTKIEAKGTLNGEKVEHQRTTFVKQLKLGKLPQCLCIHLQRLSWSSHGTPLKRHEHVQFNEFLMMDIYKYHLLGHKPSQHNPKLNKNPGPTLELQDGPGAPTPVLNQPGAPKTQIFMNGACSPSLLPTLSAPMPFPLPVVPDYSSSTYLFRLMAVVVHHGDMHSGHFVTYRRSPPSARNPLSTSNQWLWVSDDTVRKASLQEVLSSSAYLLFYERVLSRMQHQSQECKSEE

SMILES | IC50
CN=C(N)NCCC/C=C/CCCC(C)CC(C)C1OC(=O)/C=C/C(C)C(O)CC(O)C(C)C(O)CCC(C)C(O)CC2(O)OC(CC(OC(=O)CC(=O)O)CC(O)CC(O)C(C)C(O)/C=C/C1C)CC(O)C2O (centres undefined) | 27.5 µM
CN(C)c1ccc(C2CC(c3c(O)n(C)c(=O)[nH]c3=O)=Nc3ccccc3S2)cc1 (centres undefined) | 1.92 µM
CC1=CC(=O)C(C2=C(O)C(=O)C(C)=CC2=O)=C(O)C1=O | 36.2 µM
CN(C)C1CCN(C(=O)c2cc(-c3ccn(-c4ccccc4)n3)n3ccccc23)CC1 | > 50 µM (inactive)
O=C(Nc1ccncc1)c1ncoc1-c1cccc(Cl)c1 | 35.5 µM
CC(CCc1ccccc1)NC(=O)Cn1c(=O)c2cccn2c2ccccc21 (centres undefined) | 4.37 µM
O=C(NCc1ccccc1Cl)C1CCCN(c2nc3ccsc3c(=O)s2)C1 (centres undefined) | 0.965 µM
Cc1ccc2c(c1)N=C(c1ccc([N+](=O)[O-])cc1)CO2 | > 50 µM (inactive)
COc1ccccc1/C=C/C(=O)Nc1nc2n(n1)C(c1ccc(Cl)cc1)CC(=O)N2 (centres undefined) | > 50 µM (inactive)
COc1ccccc1-c1nc(-c2cn(-c3ccc(C)cc3)nn2)no1 | 6.47 µM
Cc1ccc(NC(=O)Cc2nnc3cc(-c4nc(C)no4)ccn23)cc1 | 4.06 µM
C=C1CCC2[C@](C)(CCC[C@]2(C)C(=O)OC)[C@H]1CCc1ccoc1/C=C/C(=O)O (some centres undefined) | > 50 µM (inactive)
Cc1cc(=O)n(CC(=O)Nc2ccccc2F)c(Nc2ccc(F)cc2)n1 | 14.2 µM
COc1ccc(C(=O)NCCc2nnc3ccc(SCC(=O)NCc4ccc(F)cc4)nn23)cc1 | 15.8 µM
O=C(COc1cccc(-n2cnnn2)c1)Nc1ccc2c(c1)OCCO2 | > 50 µM (inactive)
Cc1nc(SCC(=O)Nc2cc(Cl)ccc2C)c2oc3ccccc3c2n1 | 1.22 µM
O=C(c1cnccn1)N1CCc2[nH]c3ccc(F)cc3c2C1 | > 50 µM (inactive)
Cc1ccc(C(=O)Nc2cc3c4c(c2)CC(=O)N4CCC3)cc1 | > 50 µM (inactive)
CCOc1ccccc1-c1nc(-c2nnn(Cc3ccccc3)c2C)no1 | > 50 µM (inactive)
c1ccc(-c2ccc(NCc3ccc4c(c3)OCO4)nn2)cc1 | 35.1 µM
CC(C)N(C(=O)Cn1c(=O)[nH]c2ccccc21)c1ccccc1 | > 50 µM (inactive)
Oc1sc(C=Nc2cc(Cl)ccc2Cl)c2ccccc12 | 0.981 µM
Cc1nn(-c2cc(N3CCOCC3)ncn2)c(C)c1CCC(=O)Nc1ccc(C(C)C)cc1 | 34.9 µM
O=C(NCc1ccc2c(c1)OCO2)c1ccc(C2SCC(=O)N2Cc2ccco2)cc1 (centres undefined) | > 50 µM (inactive)
O=C(Nc1ccc2c(c1)OCCO2)c1ccc(N2CCCC2=O)cc1 | 42.4 µM

SMILES | IC50
O=C(COc1ccc(Cl)cc1)N1CCc2cc3ccccc3nc21 | 1.91 µM
Cc1ccc(CSC2=NS(=O)(=O)c3ccccc3N2)cc1 | > 50 µM (inactive)
O=C(CSc1nncc2ccccc12)Nc1ccc2c(c1)OCO2 | > 50 µM (inactive)
COc1cccc(-n2cnc3cc(C(=O)NC4CC4)ccc3c2=O)c1 | > 50 µM (inactive)
COc1ccccc1CNC(=O)CCCCn1c(=O)c2ccccc2n(Cc2ccccc2C#N)c1=O | 15.1 µM
COc1ccc(C(=O)Nc2cc(F)c3nc(N4CCOCC4)ccc3c2)c(OC)c1 | > 50 µM (inactive)
COc1ccc(NC(=O)CN2CCN(c3ccc(C(C)=O)cc3)CC2)cc1S(=O)(=O)N1CCCCC1 | 36.4 µM
Cc1ccc2c(c1)-c1c(c(C(=O)N3CCN(c4ccccc4)CC3)nn1C)CS2 | > 50 µM (inactive)
CCN1CCN(C(=O)CCCN(c2ccccc2)S(C)(=O)=O)CC1 | > 50 µM (inactive)
CC1(C(=O)NCc2ccccc2)Cn2c(cc3ccccc32)C(=O)N1Cc1ccccc1 (centres undefined) | > 50 µM (inactive)
CC(=O)c1ccccc1NC(=O)COc1ccc(-c2ccc(C#N)cc2)cc1 | 2.51 µM
CC1CCN(S(=O)(=O)c2ccc(C(=O)Nc3ccc(S(N)(=O)=O)cc3)cc2)CC1 | 29.7 µM
CC1=C(c2ccc(F)cc2)S(=O)(=O)NC1=NCC(=O)Nc1ccc(F)cc1 | 21 µM
COc1cccc2sc(N3CCN(c4nc5ccccc5s4)CC3)nc12 | 39.3 µM
c1ccc(Cc2nn3c(-c4cccnc4)nnc3c3ccccc23)cc1 | 0.654 µM
Cc1ccccc1OCCSc1nc2ccccc2n1CC(=O)NC1CC1 | 15.5 µM
O=C(NC1CCS(=O)(=O)C1)c1ccc(N2CCC(Cc3ccccc3)CC2)nn1 (centres undefined) | > 50 µM (inactive)
O=S(=O)(c1ccccc1)N1CCN2Cc3ccccc3N(Cc3ccccc3)CC2C1 (centres undefined) | > 50 µM (inactive)
Cc1nc(-c2ccc(C(=O)NCc3ccc(F)cc3)cc2)cs1 | 38.3 µM
CCn1c(SCC(=O)c2c(N)n(CC(C)C)c(=O)n(C)c2=O)nnc1-c1ccccc1 | 9.77 µM
O=C(O)c1nccnc1C(=O)N1CCc2ccccc2C1 | > 50 µM (inactive)
Cc1ccc2c(c1)N(Cc1nc(-c3ccc(F)cc3)no1)C(=O)CO2 | > 50 µM (inactive)
Cc1nc(NCc2ccccn2)c2cc(-c3ccccc3)sc2n1 | 25.6 µM
CCc1cc(C(=O)c2ccc(OC)cc2)c(NC(=O)CN2CCCCC2)s1 | 33.5 µM
COc1ccc(OC)c(CCNC(=O)CCC2=NS(=O)(=O)c3ccc(C(F)(F)F)cc3N2)c1 | 23.5 µM

SMILES | IC50
COc1cccc2c1OCC(C(=O)NCc1ccc(F)cc1)=C2 | > 50 µM (inactive)
COC(=O)c1ccccc1NC(=O)CSc1nnc(-c2ccc(C(C)(C)C)cc2)n1C1CCCC1 | 33.8 µM
CC1=C(C(=O)Nc2ccccc2C)C(c2ccc(OCc3ccccc3F)cc2)n2ncnc2N1 (centres undefined) | 30.6 µM
O=S(=O)(Cc1nnc(-c2ccccc2C(F)(F)F)o1)c1ccc(Cl)cc1 | > 50 µM (inactive)
O=C(CNc1nc(Nc2ccccc2F)nc(Nc2ccccc2F)n1)Nc1ccccc1 | 33.4 µM
O=C(CCn1c(=O)c2ccccc2n(Cc2cc(=O)n3ccccc3n2)c1=O)NCCc1ccc(Cl)cc1 | 28.5 µM
Cc1cc(=O)n(C)c2c(O)c3c(cc12)c(C)cc(=O)n3C | > 50 µM (inactive)
CCOc1ccc(CCNC(=O)c2cccc3c2C(=O)N(CCOC)C3)cc1OCC | > 50 µM (inactive)
Cc1cc(C(=O)N2CCN(C3CCN(Cc4ccc(Cl)o4)CC3)C(=O)C2)c(C)o1 | > 50 µM (inactive)
Cc1ccc(C)c(NC(=O)CCc2nc(CSc3nc4ccccc4o3)no2)c1 | 23.8 µM
Cc1cc(C(=O)CN2CCN(Cc3ccc4c(c3)OCO4)CC2)c(C)n1-c1ccc2c(c1)OCO2 | > 50 µM (inactive)
O=C(c1ccc2cc[nH]c2c1)N1CCC(Nc2cccnc2)C1 (centres undefined) | > 50 µM (inactive)
CC(C)CC(NC(=O)c1ccc(Cl)cc1Cl)c1nc2ccccc2[nH]1 (centres undefined) | > 50 µM (inactive)
CCCCCCCc1cc(O)cc(O)c1 | 38.9 µM
O=C(CNC(=O)OCc1ccccc1)Nc1ccc(Br)cc1C(=O)c1ccccc1Cl | 5.77 µM
N#Cc1ccc(NC(=O)Nc2cccn(Cc3ccccc3F)c2=O)cc1 | 3.2 µM
O=C(Cn1c(=O)n(Cc2ccc(F)cc2)c(=O)c2sccc21)Nc1cccc(Cl)c1 | 4.47 µM
CN(c1ccccc1)c1nc(=O)n(CC(=O)Nc2ccc3c(c2)OCCO3)c2ccccc12 | 35.9 µM
O=C(Cn1cnc2c(oc3ccccc32)c1=O)NCc1ccccc1Cl | 35.9 µM
O=S1(=O)CCN(Cc2c(F)cccc2F)c2c(F)nc(N3CCOCC3)c(F)c21 | > 50 µM (inactive)
c1ccc(-n2nnc(-c3noc(-c4cccnc4)n3)c2-c2ccncc2)cc1 | 25.9 µM
COc1ccc(C(=O)C2CC(=O)Nc3c2c(C)nn3-c2ccc(Br)cc2)cc1 (centres undefined) | 3.36 µM
CC[C@H](C)[C@H](NC(=O)[C@H]([C@@H](C)CC)N(C)C(C)=O)C(=O)N[C@H](C(=O)N[C@@H](CC(C)C)C(=O)C1(C)CO1)[C@@H](C)O (some centres undefined) | > 50 µM (inactive)
O=C(Nc1ccccc1-c1nc2ccccc2[nH]1)c1sc2ccccc2c1Cl | 1.76 µM
Fc1ccc(CN2CCc3nc4cccnc4cc3C2)cc1 | > 50 µM (inactive)

SMILES | IC50
CCCCN(C)C(=O)c1cc2c(=O)n3cccc(C)c3nc2n1Cc1ccccc1 | 36.8 µM
CCCC[C@@H](C)/C=C(C)/C=C(\C)C(=O)NC1=C[C@](O)(/C=C/C=C/C=C/C(=O)NC2=C(O)CCC2=O)[C@@H]2O[C@@H]2C1=O | 4.76 µM
O=C(CCc1nnc2n(Cc3ccccc3Cl)c(=O)c3ccccc3n12)NCc1ccccn1 | 25.5 µM
O=C(c1ccc(N2CCc3ccccc32)nn1)N1CCc2ccccc21 | > 50 µM (inactive)
Cc1ccc(-c2nc(Cn3nnc(-c4nc(-c5ccccn5)no4)c3C)c(C)o2)cc1 | > 50 µM (inactive)
CCC1=C(c2ccc(C)cc2)S(=O)(=O)NC1=NCC(=O)NC(C)c1ccccc1 (centres undefined) | 21.1 µM
CC(=O)Nc1ccc(Cc2nc(-c3ccc4c(c3)nc(C)c(=O)n4C3CCCC3)no2)cc1 | > 50 µM (inactive)
CC1CCCCN1CCCNC(=O)c1ccc(N2CCc3ccccc32)s1 (centres undefined) | 30.9 µM
COc1ccc(CCNC(=O)c2cc3ccccc3s2)cc1OC | > 50 µM (inactive)
COc1ccc2c(c1)CCc1c(C(=O)NCc3cccnc3)noc1-2 | 19.4 µM
O=C(Nc1cc(F)ccc1F)c1ccn(COc2ccc(F)c(Cl)c2)n1 | 22 µM
COc1ccc(Cl)cc1N1C(=O)[C@H]2[C@@H](C1=O)[C@]1(C(=O)Nc3c(C)cc(C)cc31)N1CCC[C@@H]21 | > 50 µM (inactive)
CCN(CC)C(=O)c1sc(NC(=O)/C=C/c2c(F)cccc2Cl)c(C#N)c1C | 1.89 µM
Cn1c(=O)/c(=C/c2ccccc2)[nH]c(=O)/c1=C/c1ccccc1 | 14.6 µM
CCOc1ccc(S(=O)(=O)Nc2ccc[nH]c2=O)cc1 | > 50 µM (inactive)
Fc1ccc(Oc2nc(CN3CCOCC3)nc3sc4c(c23)CCCC4)c(Cl)c1 | > 50 µM (inactive)
Cc1ccccc1Cn1ccc(NC(=O)c2noc(C)c2[N+](=O)[O-])n1 | > 50 µM (inactive)
CC(C(=O)NCc1ccc2c(c1)OCO2)N1CCN(c2ccc(O)cc2)CC1 (centres undefined) | > 50 µM (inactive)
CSc1cccc(C(=O)Nc2ccc(-c3nc4ccccc4[nH]3)cc2)c1 | 2.89 µM
Cc1ccc(-c2ccc(N3CCOCC3)nn2)cc1S(=O)(=O)N1CCOCC1 | > 50 µM (inactive)
COc1ccc(C)cc1NC(=O)Cc1csc(NC(=O)c2ccc(=O)[nH]c2)n1 | > 50 µM (inactive)
Cc1ccn(-c2ccc(NC(=O)C3CCCCC3)cc2)n1 | 17.2 µM
CN(C)c1ccc(CCN2CCc3nc4cccnc4cc3C2)cc1 | > 50 µM (inactive)
c1ccc(CN2CCN(c3nc4ccccc4n4nnnc34)CC2)cc1 | > 50 µM (inactive)
